Measurements taken from patent US20220380378A1 (ESSA Pharma, Inc., priority 2021, published 2022).

biological target: T1, androgen receptor (AR) (Homo sapiens, UniProt P10275, T878A); test: Androgen-induced PSA (6.1 kb)-luciferase reporter assay in LNCaP cells (R1881 1 nM); format: cell-based; parameters: endogenous in cells; host or cells: LNCaP; settings: 24 h, read-out: PSA-Luc IC50 Range
T1 sequence (P10275 1-920 T878A): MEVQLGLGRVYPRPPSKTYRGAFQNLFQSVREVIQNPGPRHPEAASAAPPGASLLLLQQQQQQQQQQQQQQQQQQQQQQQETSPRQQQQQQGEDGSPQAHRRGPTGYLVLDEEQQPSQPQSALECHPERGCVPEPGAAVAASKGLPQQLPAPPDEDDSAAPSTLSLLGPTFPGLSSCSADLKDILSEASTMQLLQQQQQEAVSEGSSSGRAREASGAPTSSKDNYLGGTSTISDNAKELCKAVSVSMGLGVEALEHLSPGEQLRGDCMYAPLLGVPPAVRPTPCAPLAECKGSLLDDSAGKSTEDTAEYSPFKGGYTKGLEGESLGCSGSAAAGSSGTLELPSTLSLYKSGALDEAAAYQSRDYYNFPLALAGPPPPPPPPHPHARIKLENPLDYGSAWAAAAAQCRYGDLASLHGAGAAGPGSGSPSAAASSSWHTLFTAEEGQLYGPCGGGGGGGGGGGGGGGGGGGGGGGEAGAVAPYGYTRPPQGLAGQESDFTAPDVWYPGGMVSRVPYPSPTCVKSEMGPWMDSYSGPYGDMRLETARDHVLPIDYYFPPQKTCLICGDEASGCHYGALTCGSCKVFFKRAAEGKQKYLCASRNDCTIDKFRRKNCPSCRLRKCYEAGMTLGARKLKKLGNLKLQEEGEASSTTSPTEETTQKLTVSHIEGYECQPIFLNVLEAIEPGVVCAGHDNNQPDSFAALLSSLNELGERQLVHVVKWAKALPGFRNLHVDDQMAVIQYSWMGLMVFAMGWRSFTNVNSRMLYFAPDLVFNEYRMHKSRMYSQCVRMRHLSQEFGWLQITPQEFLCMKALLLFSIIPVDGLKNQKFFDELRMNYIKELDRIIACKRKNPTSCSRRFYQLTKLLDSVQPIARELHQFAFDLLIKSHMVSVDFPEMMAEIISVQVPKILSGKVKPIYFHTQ
Method in brief: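 Compound or vehicle was added 1 h before 1 nM R1881 to LNCaP cells carrying a transiently transfected (24 h) PSA (6.1 kb)-luciferase reporter. After 24 h androgen exposure, lysate luminescence was normalized to protein and expressed versus vehicle plus R1881 for IC50.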

CC(C)(c1ccc(OCc2ccnc(NS(C)(=O)=O)n2)cc1)c1cnc(N2CCCCC2)c(Cl)c1 [Compound A105] and CC(C)(c1ccc(OCc2ccnc(NS(C)(=O)=O)n2)cc1)c1cnc(N2CC3(CCC3)C2)c(C#N)c1 [Compound A166] cannot be ordered by IC50: > 2000 nM for the first, > 2000 nM for the second.

First: CS(=O)(=O)Nc1nccc(COc2ccc3c(ccn3-c3cc(Cl)c(OC=C(Cl)Cl)c(C#N)c3)c2)n1 [Compound A128]
Second: CS(=O)(=O)Nc1nccc(COc2ccc3c(ccn3-c3cc(Cl)c(OCC4COC4)c(C#N)c3)c2)n1 [Compound A73]
The IC50 of the first is lower: 500 to 2000 nM for the first, > 2000 nM for the second.

Compared with CS(=O)(=O)Nc1nccc(COc2ccc3cc(-c4cc(Cl)c(OCCCl)c(C#N)c4)ccc3c2)n1 [Compound A148], Cn1cc(-c2cc(Cl)c(OCCCl)c(C#N)c2)c2ccc(OCc3ccnc(NS(C)(=O)=O)n3)cc21 [Compound A157] is lower in IC50: > 2000 nM for the first, 500 to 2000 nM for the second. The second is the more potent here.

First: CC(C)(c1ccc(-c2cnc3c(c2)CCC(NS(C)(=O)=O)C3)cc1)c1cc(Cl)c(OCCCl)c(C#N)c1 (stereo not shown) [Compound A214]
Second: CC(C)(c1ccc(-c2cnc3c(c2)C(NS(C)(=O)=O)CCC3)cc1)c1cc(Cl)c(OCCCl)c(C#N)c1 (stereo not shown) [Compound A243]
The IC50 of the first is lower: 500 to 2000 nM for the first, > 2000 nM for the second. The first is the more potent here.

N#Cc1cc(-n2ccc3cc(OCc4coc(S(N)(=O)=O)c4)ccc32)cc(Cl)c1OCCCl [Compound A20] and CS(=O)(=O)N[C@@H]1CC[C@@H](Oc2ccc3c(ccn3-c3cc(Cl)c(OCCCl)c(C#N)c3)c2)C1 [Compound A207] fall in the same range of IC50: 500 to 2000 nM for the first, 500 to 2000 nM for the second.

First: CC(C)(c1ccc(-c2c[nH]c3nc(NS(C)(=O)=O)ncc23)cc1)c1cc(Cl)c(OCCCl)c(C#N)c1 [Compound A198]
Second: CC(C)(c1ccc(-c2ccc3nc(NS(C)(=O)=O)nnc3c2)cc1)c1cc(Cl)c(OCCCl)c(C#N)c1 [Compound A108]
The IC50 of the first is lower: 500 to 2000 nM for the first, > 2000 nM for the second.

First: CC(C)(c1ccc(OCc2cncnc2N)cc1)c1cc(Cl)c(OCCCl)c(C#N)c1 [Compound A94]
Second: CC(C)(c1ccc(OCc2ccnc(NS(C)(=O)=O)c2N)cc1)c1cc(Cl)c(OCCCl)c(C#N)c1 [Compound A97]
The IC50 of the first is higher: 500 to 2000 nM for the first, < 500 nM for the second.

CC(C)CNc1ncc(C(C)(C)c2ccc(OCc3ccnc(NS(C)(=O)=O)n3)cc2)cc1Cl [Compound A67] and CC(C)(c1ccc(OCc2ccnc(NS(C)(=O)=O)n2)cc1)c1cnc(OCCCl)c(Cl)c1 [Compound A103] cannot be ordered by IC50: > 2000 nM for the first, > 2000 nM for the second.

First: CS(=O)(=O)NC12CC(NC(=O)c3ccc4c(ccn4-c4cc(Cl)c(OCCCl)c(C#N)c4)c3)(C1)C2 [Compound A134]
Second: CS(=O)(=O)N[C@H]1CC[C@H](Oc2ccc3c(ccn3-c3cc(Cl)c(OCCCl)c(C#N)c3)c2)CC1 [Compound A242]
The IC50 of the first is higher: > 2000 nM for the first, 500 to 2000 nM for the second. The second is the more potent here.

Going from CS(=O)(=O)Nc1nccc(COc2ccc3c(c2)CC[C@@H]3c2cc(Cl)c(OCCCl)c(C#N)c2)n1 [A35(R)] to CS(=O)(=O)Nc1ncc(Cn2ncc3ccc(-c4cc(Cl)c(OCCCl)c(C#N)c4)cc32)cn1 [Compound A143], the IC50 rises from < 500 nM to > 2000 nM.

CC(C)(c1ccc(-c2ccc3c(c2)OCCN3S(C)(=O)=O)cc1)c1cc(Cl)c(OCCCl)c(C#N)c1 [Compound A228] and CC(C)(c1ccc(-c2ccc3ncncc3c2)cc1)c1cc(Cl)c(OCCCl)c(C#N)c1 [Compound A110] cannot be ordered by IC50: > 2000 nM for the first, > 2000 nM for the second.

First: CC(C)(c1ccc(OCC2CN(S(C)(=O)=O)C2)cc1)c1cc(Cl)c(OCCCl)c(C#N)c1 [Compound A151]
Second: CCNc1ncc2cc(-c3ccc(C(C)(C)c4cc(Cl)c(OCCCl)c(C#N)c4)cc3)ccc2n1 [Compound A176]
The IC50 of the first is lower: 500 to 2000 nM for the first, > 2000 nM for the second.

Compared with CS(=O)(=O)N1CCN(CCc2ccc3c(ccn3-c3cc(Cl)c(OCCCl)c(C#N)c3)c2)CC1 [Compound A124], CS(=O)(=O)Nc1ncc2cc(-c3ccc4c(ccn4-c4cc(Cl)c(OCCCl)c(C#N)c4)c3)ccc2n1 [Compound A122] is higher in IC50: 500 to 2000 nM for the first, > 2000 nM for the second.

CC(C)(c1ccc(-c2ccc3nc(N)ncc3c2)cc1)c1cc(Cl)c(OCCCl)c(C#N)c1 [Compound A177] and CC(C)(c1ccc(OCc2ccnc(NS(C)(=O)=O)n2)cc1)c1cc(C#N)c2ccc(Cl)cc2c1 [Compound A25] fall in the same range of IC50: 500 to 2000 nM for the first, 500 to 2000 nM for the second.
